Measurements taken from paper PMC10409285 (PLOS Pathogens, 2023).
pIC50: −log10 of the molar value. Where “and” joins values, the source holds several entries; their conditions need not be identical. Equal values may be shown once. Read-outs that look alike come from different tables or passages of the source. No end group written: not given here.

Experiments:
DR2b (DRB1*15:01) = target: T1, DR2b (DRB1*15:01) (Homo sapiens, UniProt P01903+P01911); experiment: fluorescence polarization competition binding assay, DR2b; conditions: mean of two independent experiments
T1 construct: Soluble DRB1*15:01 and DRB5*01:01 with a covalently linked CLIP peptides; covalently linked CLIP peptide (3C-protease-cleavable linker) (cleaved yes); purchased NIH Tetramer Core Facility / Emory University (a gift of Drs. John Altman and Richard Willis, not bought)

DR2a (DRB5*01:01) = DR2a (DRB5*01:01) (Homo sapiens, UniProt P01903+Q30154); experiment: fluorescence polarization competition binding assay, DR2a
[1] = target: DP4.1 (HLA-DPA1*01:03/DPB1*04:01) (Homo sapiens, UniProt P04440+P20036); experiment: fluorescence polarization competition binding assay, DP4.1
[2] = fluorescence polarization competition, […], mean of two independent experiments, read-out: Mean IC50, DR2a (DRB5*01:01)
[3] = fluorescence polarization competition, soluble DP4.1-Clip 250 nM, 25 nM Alexa488 oxytocinase probe peptide, 500 nM HLA-DM, 24 h 37°C, mean of two independent experiments, read-out: Mean IC50, DPA*01:03/DPB1*04:01

Compound	pIC50 (DR2b (DRB1*15:01))	pIC50 (DR2a (DRB5*01:01))	pIC50 [1]	further results
CC[C@H](C)[C@H](NC(=O)[C@@H](NC(=O)[C@H](CC(N)=O)NC(=O)[C@H](CO)NC(=O)[C@H](CCCCN)NC(=O)[C@H](CCC(=O)O)NC(=O)[C@@H](NC(=O)[C@H](CO)NC(=O)[C@H](C)NC(=O)[C@H](Cc1ccccc1)NC(=O)[C@H](Cc1ccc(O)cc1)NC(=O)[C@@H](NC(=O)CNC(=O)[C@H](CC(=O)O)NC(=O)[C@H](CC(N)=O)NC(=O)[C@@H](N)Cc1ccccc1)C(C)C)[C@@H](C)O)[C@@H](C)CC)C(=O)O [S#18 (CoV2)]	3.11	–	–	pIC50 (DR2a (DRB5*01:01); [2]): 4.38
CC[C@H](C)[C@H](NC(=O)[C@@H](NC(=O)CNC(=O)[C@H](CC(N)=O)NC(=O)[C@H](CCC(=O)O)NC(=O)[C@H](CC(N)=O)NC(=O)[C@H](Cc1ccc(O)cc1)NC(=O)[C@H](CCCCN)NC(=O)[C@H](CC(C)C)NC(=O)[C@H](CC(C)C)NC(=O)[C@H](Cc1ccccc1)NC(=O)[C@@H](NC(=O)[C@H](CCCNC(=N)N)NC(=O)[C@@H]1CCCN1C(=O)[C@@H](N)CCC(N)=O)[C@@H](C)O)[C@@H](C)O)C(=O)N[C@H](C(=O)O)[C@@H](C)O [S#55 (CoV2)]	5.43	–	–	pIC50 (DR2a (DRB5*01:01); [2]): 4.18
CC(C)C[C@H](NC(=O)[C@H](C)NC(=O)[C@H](C)NC(=O)[C@@H](N)CC(C)C)C(=O)N[C@@H](CC(N)=O)C(=O)N[C@H](C(=O)N[C@@H](Cc1ccccc1)C(=O)N[C@H](C(=O)N[C@@H](CO)C(=O)N[C@@H](Cc1c[nH]cn1)C(=O)N[C@H](C(=O)N[C@@H](CC(C)C)C(=O)N[C@H](C(=O)N[C@@H](CCCCN)C(=O)N[C@@H](Cc1ccc(O)cc1)C(=O)O)[C@@H](C)O)[C@@H](C)O)C(C)C)C(C)C [Peptide P11.229E]	6.68	5.68	–	–
CC[C@H](C)[C@H](NC(=O)[C@H](CC(=O)O)NC(=O)[C@H](CO)NC(=O)[C@H](CC(C)C)NC(=O)[C@H](CCC(N)=O)NC(=O)[C@H](CCC(N)=O)NC(=O)[C@H](CO)NC(=O)[C@@H](NC(=O)[C@H](Cc1ccc(O)cc1)NC(=O)[C@H](C)NC(=O)[C@H](CC(N)=O)NC(=O)[C@H](CC(C)C)NC(=O)[C@H](C)NC(=O)[C@@H](NC(=O)[C@@H](N)CC(C)C)[C@@H](C)O)C(C)C)C(=O)O [Peptide P11.HKU1]	6.66	4.67	–	–
LFYTQVYKNMAVYRS [Peptide P9]	6.66	> 6.00 and 6.40	–	–
CC(C)C[C@H](NC(=O)[C@H](C)NC(=O)[C@H](C)NC(=O)[C@@H](N)CC(C)C)C(=O)N[C@@H](CC(N)=O)C(=O)N[C@@H](C)C(=O)N[C@@H](Cc1ccccc1)C(=O)N[C@H](C(=O)N[C@@H](CO)C(=O)N[C@@H](CCC(N)=O)C(=O)N[C@H](C(=O)N[C@@H](CC(C)C)C(=O)N[C@@H](CC(N)=O)C(=O)N[C@@H](CCCCN)C(=O)N[C@@H](Cc1ccc(O)cc1)C(=O)O)C(C)C)C(C)C [Peptide P11.NL63]	6.25	5.68	–	–
CC[C@H](C)[C@H](NC(=O)CNC(=O)[C@H](CC(N)=O)NC(=O)[C@@H](NC(=O)[C@H](Cc1ccccc1)NC(=O)[C@@H](N)CC(=O)O)[C@@H](C)CC)C(=O)N[C@@H](Cc1ccccc1)C(=O)N[C@@H](C)C(=O)N[C@@H](CCCCN)C(=O)N[C@H](C(=O)N[C@@H](CCCCN)C(=O)N[C@@H](CC(N)=O)C(=O)N[C@H](C(=O)N[C@@H](CCCCN)C(=O)N[C@H](C(=O)N[C@H](C(=O)N[C@@H](CCCCN)C(=O)O)[C@@H](C)CC)C(C)C)[C@@H](C)O)C(C)C [Peptide P12]	4.77	> 6.00 and 6.85	–	–
CC(C)C[C@H](NC(=O)[C@H](CCCCN)NC(=O)[C@@H](NC(=O)[C@H](CCCCN)NC(=O)[C@H](CC(=O)O)NC(=O)[C@H](Cc1ccccc1)NC(=O)[C@H](CC(C)C)NC(=O)[C@H](CC(C)C)NC(=O)[C@H](CC(=O)O)NC(=O)[C@H](CCC(=O)O)NC(=O)[C@H](Cc1ccccc1)NC(=O)[C@H](Cc1ccccc1)NC(=O)[C@H](CO)NC(=O)[C@H](CCCNC(=N)N)NC(=O)[C@H](CO)NC(=O)[C@H](CO)NC(=O)[C@@H](N)CO)C(C)C)C(=O)O [HKU1-151]	–	–	5.59	–
CC[C@H](C)[C@H](NC(=O)[C@H](Cc1ccccc1)NC(=O)[C@@H](N)CO)C(=O)N[C@@H](CCC(=O)O)C(=O)N[C@@H](CC(=O)O)C(=O)N[C@@H](CC(C)C)C(=O)N[C@@H](CC(C)C)C(=O)N[C@@H](Cc1ccccc1)C(=O)N[C@@H](CC(N)=O)C(=O)N[C@@H](CCCCN)C(=O)N[C@H](C(=O)N[C@H](C(=O)N[C@@H](CC(C)C)C(=O)N[C@@H](C)C(=O)N[C@@H](CC(=O)O)C(=O)N[C@@H](C)C(=O)O)[C@@H](C)O)C(C)C [S#164 (CoV2)]	–	–	–	pIC50 [1, 3]: 3.89
CC[C@H](C)[C@H](NC(=O)[C@H](Cc1ccccc1)NC(=O)[C@H](CO)NC(=O)[C@H](CCCNC(=N)N)NC(=O)[C@H](CCCCN)NC(=O)[C@H](CO)NC(=O)[C@@H]1CCCN1C(=O)[C@@H](N)CCCCN)C(=O)N[C@@H](CCC(=O)O)C(=O)N[C@@H](CC(=O)O)C(=O)N[C@@H](CC(C)C)C(=O)N[C@@H](CC(C)C)C(=O)N[C@@H](Cc1ccccc1)C(=O)N[C@@H](CC(N)=O)C(=O)N[C@@H](CCCCN)C(=O)N[C@H](C(=O)O)C(C)C [S#163 (CoV2)]	–	–	–	pIC50 [1, 3]: 6.54
CC(C)C[C@H](NC(=O)[C@H](CCC(=O)O)NC(=O)[C@H](CC(C)C)NC(=O)[C@H](CCCNC(=N)N)NC(=O)[C@H](CO)NC(=O)CNC(=O)[C@H](Cc1ccccc1)NC(=O)[C@H](Cc1ccccc1)NC(=O)[C@H](Cc1ccccc1)NC(=O)[C@H](C)NC(=O)CN)C(=O)N[C@@H](C)C(=O)N[C@@H](CCCCN)C(=O)N[C@H](C(=O)N[C@@H](CCC(N)=O)C(=O)N[C@@H](CC(N)=O)C(=O)O)C(C)C [Peptide P2]	–	–	3.93	–
CC[C@H](C)[C@H](NC(=O)CNC(=O)[C@H](CC(=O)O)NC(=O)[C@H](CCC(N)=O)NC(=O)[C@H](CC(N)=O)NC(=O)[C@H](Cc1ccccc1)NC(=O)[C@H](C)NC(=O)[C@H](CC(C)C)NC(=O)[C@H](CC(C)C)NC(=O)[C@H](Cc1ccc(O)cc1)NC(=O)[C@H](CCC(N)=O)NC(=O)[C@H](CCCNC(=N)N)NC(=O)[C@@H](N)CO)C(=O)N[C@H](C(=O)N[C@@H](Cc1ccccc1)C(=O)N[C@@H](CC(N)=O)C(=O)O)[C@@H](C)CC [Peptide P13]	–	4.36	–	–
CC[C@H](C)[C@H](N)C(=O)N[C@@H](Cc1c[nH]cn1)C(=O)N[C@@H](Cc1ccccc1)C(=O)N[C@@H](CO)C(=O)N[C@@H](Cc1ccc(O)cc1)C(=O)N[C@H](C(=O)N1CCC[C@H]1C(=O)N[C@H](C(=O)N[C@@H](CCCCN)C(=O)N[C@@H](Cc1ccc(O)cc1)C(=O)N[C@H](C(=O)N[C@H](C(=O)N[C@@H](C)C(=O)N[C@@H](CCCNC(=N)N)C(=O)N[C@H](C(=O)N[C@@H](CO)C(=O)N1CCC[C@H]1C(=O)NCC(=O)O)C(C)C)[C@@H](C)O)C(C)C)[C@@H](C)O)C(C)C [Peptide P7]	–	–	5.03	–
QGLPNNTASWFTALTQH [N#7 (CoV2)]	3.30	–	–	pIC50 (DR2a (DRB5*01:01); [2]): 3.69
EGQQIIFYEGVNFTP [Peptide P8]	6.64	5.25	–	–
CC[C@H](C)[C@H](NC(=O)[C@H](C)NC(=O)[C@H](CO)NC(=O)[C@@H](N)CCCNC(=N)N)C(=O)N[C@@H](CCC(=O)O)C(=O)N[C@@H](CC(=O)O)C(=O)N[C@@H](CC(C)C)C(=O)N[C@@H](CC(C)C)C(=O)N[C@@H](Cc1ccccc1)C(=O)N[C@@H](CC(=O)O)C(=O)N[C@@H](CCCCN)C(=O)N[C@H](C(=O)N[C@@H](CCCCN)C(=O)N[C@@H](CC(C)C)C(=O)N[C@@H](CO)C(=O)O)C(C)C [Peptide P4]	–	–	5.52	–
CC(C)[C@H](NC(=O)[C@H](CC(N)=O)NC(=O)CNC(=O)CNC(=O)[C@H](CO)NC(=O)[C@@H]1CCCN1)C(=O)N[C@H](C(=O)N1CCC[C@H]1C(=O)N[C@@H](Cc1ccc(O)cc1)C(=O)N[C@@H](Cc1ccc(O)cc1)C(=O)N[C@@H](CO)C(=O)N[C@@H](Cc1c[nH]c2ccccc12)C(=O)N[C@@H](Cc1ccccc1)C(=O)N[C@@H](CO)C(=O)NCC(=O)O)C(C)C [Peptide P10]	6.59	4.14	–	–
YLAISNELLLTVPTK [Peptide P1]	–	–	> 6.00 and 6.39	–
CC[C@H](C)[C@H](NC(=O)[C@@H](NC(=O)CNC(=O)[C@H](CC(N)=O)NC(=O)[C@H](CCC(=O)O)NC(=O)[C@H](CC(N)=O)NC(=O)[C@H](Cc1ccc(O)cc1)NC(=O)[C@H](CCCCN)NC(=O)[C@H](CC(C)C)NC(=O)[C@@H](N)CC(C)C)[C@@H](C)O)C(=O)N[C@H](C(=O)N[C@@H](CC(=O)O)C(=O)N[C@@H](C)C(=O)N[C@H](C(=O)N[C@@H](CC(=O)O)C(=O)N[C@@H](CS)C(=O)O)C(C)C)[C@@H](C)O [S#56 (CoV2)]	4.40	–	–	pIC50 (DR2a (DRB5*01:01); [2]): 4.39
NRGRQFYEFYNDVKPP [Peptide P14]	–	–	5.29	–
PSASAFFGMSRIGMEVT [N#45 (CoV2)]	–	–	–	pIC50 [1, 3]: 3.26
CC[C@H](C)[C@H](NC(=O)[C@H](Cc1ccccc1)NC(=O)[C@H](Cc1ccc(O)cc1)NC(=O)[C@H](CC(C)C)NC(=O)CNC(=O)[C@H](Cc1ccc(O)cc1)NC(=O)[C@@H]1CCCN1C(=O)[C@H](C)N)C(=O)N[C@@H](Cc1c[nH]cn1)C(=O)N[C@@H](Cc1ccccc1)C(=O)N[C@@H](CO)C(=O)N[C@@H](Cc1ccc(O)cc1)C(=O)N[C@H](C(=O)N1CCC[C@H]1C(=O)N[C@H](C(=O)N[C@@H](CCCCN)C(=O)O)[C@@H](C)O)C(C)C [Peptide P6]	–	–	4.09	–
CC(C)C[C@H](NC(=O)[C@H](Cc1ccccc1)NC(=O)[C@@H](N)C(C)C)C(=O)N[C@@H](Cc1c[nH]cn1)C(=O)N[C@H](C(=O)N[C@H](C(=O)N[C@@H](Cc1ccc(O)cc1)C(=O)N[C@H](C(=O)N1CCC[C@H]1C(=O)N[C@@H](C)C(=O)N[C@@H](CCC(N)=O)C(=O)N[C@@H](CCC(=O)O)C(=O)N[C@@H](CCCCN)C(=O)N[C@@H](CC(N)=O)C(=O)N[C@@H](Cc1ccccc1)C(=O)N[C@H](C(=O)O)[C@@H](C)O)C(C)C)[C@@H](C)O)C(C)C [S#213 (CoV2)]	–	–	–	pIC50 [1, 3]: 3.62
